Experimental data reported in patent US10968222B2, “2-azabicyclo hexane JAK inhibitor compound” (THERAVANCE BIOPHARMA R&D IP, LLC, priority 2018, dated 2021).

Key:
CSF1R = target: T1, CSF1R (Homo sapiens, UniProt P07333); experiment: Kinome screen, CSF1R; format: binding; conditions: screened at 1 μM
T1 construct: made in house; host or cells: E. coli BL21-derived host (T7 phage) or HEK-293 cells
Procedure: (§1) Compounds 1 and C-1 were screened against other kinases to evaluate their selectivity profile.
(§2) Kinase-tagged T7 phage strains were grown in parallel in 24-well blocks in an E. coli host derived from the BL21 strain. E. coli were grown to log-phase and infected with T7 phage from a frozen stock (multiplicity of infection=0.4) and incubated with shaking at 32° C. until lysis (90-150 minutes). The lysates were centrifuged (6,000×g) and filtered (0.2 μm) to remove cell debris. The remaining kinases were produced in HEK-293 cells and subsequently tagged with DNA for qPCR detection.
(§3) Streptavidin-coated magnetic beads were treated with biotinylated small molecule ligands for 30 minutes at room temperature to generate affinity resins for kinase assays. The liganded beads were blocked with excess biotin and washed with blocking buffer (SeaBlock (Pierce), 1% BSA, 0.05% Tween 20, 1 mM DTT) to remove unbound ligand and to reduce non-specific phage binding. Binding reactions were assembled by combining kinases, liganded affinity beads, and test compounds in 1× binding buffer (20% SeaBlock, 0.17×PBS, 0.05% Tween 20, 6 mM DTT). Test compounds were prepared as 40× stocks in 100% DMSO and directly diluted into the assay. All reactions were performed in polypropylene 384-well plates in a final volume of 0.04 ml. […] The kinase concentration in the eluates was measured by qPCR. […]

EPHB6 = target: T2, EPHB6 (Homo sapiens, UniProt O15197); experiment: Kinome screen, EPHB6; format: binding; conditions: screened at 1 μM
T2 construct: made in house; host or cells: E. coli BL21-derived host (T7 phage) or HEK-293 cells
Procedure: as §1, §2, §3

[1] = Lung and plasma pharmacokinetics in mice; format: in vivo, mouse; conditions: BALB/c mice
Procedure: Plasma and lung concentrations of compound 1 and ratios thereof were determined in the following manner. BALB/c mice from Charles River Laboratories were used in the assay. Compound 1 was formulated in 20% propylene glycol in citrate buffer (pH 4) at a concentration of 0.324 mg/mL as a solution. 50 μL of the solution formulation was introduced into the trachea of a mouse by oral aspiration. At various time points (0.167, 2, 6 hr) post dosing, blood samples were removed via cardiac puncture and intact lungs were excised from the mice. Blood samples were centrifuged (Eppendorf centrifuge, 5804R) for 4 minutes at approximately 12,000 rpm at 4° C. to collect plasma. Lungs were padded dry, weighed, and homogenized in 0.6 mL sterile water. Plasma and lung concentrations of compound 1 were determined by LC-MS analysis against analytical standards constructed into a standard curve in the test matrix. […] The lung-to-plasma ratio was determined as the ratio of the lung AUC in μg hr/g to the plasma AUC in μg hr/mL (where AUC is conventionally defined as the area under the curve of test compound concentration vs. time).

KIT = target: T3, KIT (Homo sapiens, UniProt P10721); experiment: Kinome screen, KIT; format: binding; conditions: screened at 1 μM
T3 construct: made in house; host or cells: E. coli BL21-derived host (T7 phage) or HEK-293 cells
Procedure: as §1, §2, §3

[2] = tested on: IL-6 stimulated CCL2 (MCP-1) production in human PBMCs; experiment: Inhibition of IL-6 stimulated CCL2 (MCP-1) in human PBMCs; format: cell-based; conditions: PBMC, 48 h stimulation, ELISA, read-out: pIC50, inhibition of IL-6 stimulated CCL2 (MCP-1) (converted)
Procedure: The potency of the test compound for inhibition of interleukin-6 (IL-6) stimulated CCL2 (MCP-1) production was measured in human peripheral blood mononuclear cells (PBMCs) isolated from human whole blood (Stanford Blood Center). Because IL-6 signals through JAK, this assay provides a distal measure of JAK cellular potency.
(1) The protocol of Assay 4 paragraph (1) was followed up to the incubation with test compounds. In the present assay, after test compounds were added to wells and incubated, IL-6 (R&D Systems; final concentration 10 ng/ml) in pre-warmed assay media (50 μL) was added.
(2) After cytokine stimulation for 48 h, cells were centrifuged at 500 g for 5 min and supernatants were removed and frozen at −80° C. To determine the inhibitory potency of the test compound in response to IL-6, supernatant CCL2 (MCP-1) concentrations were measured via ELISA (R&D Systems). IC50 values were determined from analysis of the inhibition curves of concentration of CCL2/MCP-1 vs compound concentration. Data are expressed as pIC50 (negative decadic logarithm IC50) values.

SRC = target: T4, SRC (Homo sapiens, UniProt P12931); experiment: Kinome screen, SRC; format: binding; conditions: screened at 1 μM
T4 construct: made in house; host or cells: E. coli BL21-derived host (T7 phage) or HEK-293 cells
Procedure: as §1, §2, §3

CDK2 = target: T5, CDK2 (Homo sapiens, UniProt P24941); experiment: Kinome screen, CDK2; format: binding; conditions: screened at 1 μM
T5 construct: made in house; host or cells: E. coli BL21-derived host (T7 phage) or HEK-293 cells
Procedure: as §1, §2, §3

T3 sequence (P10721 26-976): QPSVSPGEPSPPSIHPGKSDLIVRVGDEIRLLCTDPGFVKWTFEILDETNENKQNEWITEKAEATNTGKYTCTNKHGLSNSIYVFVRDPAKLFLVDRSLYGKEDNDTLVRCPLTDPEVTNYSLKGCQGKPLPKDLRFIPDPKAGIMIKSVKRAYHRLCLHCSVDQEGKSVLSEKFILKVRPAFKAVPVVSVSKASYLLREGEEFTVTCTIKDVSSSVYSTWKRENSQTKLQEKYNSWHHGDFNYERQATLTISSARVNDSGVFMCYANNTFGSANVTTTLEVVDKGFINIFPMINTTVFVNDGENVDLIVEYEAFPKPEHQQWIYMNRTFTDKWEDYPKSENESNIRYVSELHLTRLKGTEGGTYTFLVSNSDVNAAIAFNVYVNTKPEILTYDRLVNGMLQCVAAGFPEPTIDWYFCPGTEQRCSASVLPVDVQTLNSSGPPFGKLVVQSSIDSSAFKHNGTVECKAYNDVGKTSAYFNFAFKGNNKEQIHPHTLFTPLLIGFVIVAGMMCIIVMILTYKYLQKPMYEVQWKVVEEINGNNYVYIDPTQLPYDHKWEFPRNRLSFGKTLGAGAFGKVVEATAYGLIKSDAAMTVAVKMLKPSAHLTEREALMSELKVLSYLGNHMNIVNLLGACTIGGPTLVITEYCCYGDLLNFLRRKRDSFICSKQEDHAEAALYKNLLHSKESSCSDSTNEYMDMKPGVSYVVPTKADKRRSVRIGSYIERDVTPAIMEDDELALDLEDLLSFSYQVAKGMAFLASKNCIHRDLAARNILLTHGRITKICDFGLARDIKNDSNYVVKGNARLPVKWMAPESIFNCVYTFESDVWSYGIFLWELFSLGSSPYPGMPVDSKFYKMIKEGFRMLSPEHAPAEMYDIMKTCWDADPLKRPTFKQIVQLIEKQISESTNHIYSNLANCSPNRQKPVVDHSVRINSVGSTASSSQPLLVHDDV
T4 sequence (P12931 whole entry): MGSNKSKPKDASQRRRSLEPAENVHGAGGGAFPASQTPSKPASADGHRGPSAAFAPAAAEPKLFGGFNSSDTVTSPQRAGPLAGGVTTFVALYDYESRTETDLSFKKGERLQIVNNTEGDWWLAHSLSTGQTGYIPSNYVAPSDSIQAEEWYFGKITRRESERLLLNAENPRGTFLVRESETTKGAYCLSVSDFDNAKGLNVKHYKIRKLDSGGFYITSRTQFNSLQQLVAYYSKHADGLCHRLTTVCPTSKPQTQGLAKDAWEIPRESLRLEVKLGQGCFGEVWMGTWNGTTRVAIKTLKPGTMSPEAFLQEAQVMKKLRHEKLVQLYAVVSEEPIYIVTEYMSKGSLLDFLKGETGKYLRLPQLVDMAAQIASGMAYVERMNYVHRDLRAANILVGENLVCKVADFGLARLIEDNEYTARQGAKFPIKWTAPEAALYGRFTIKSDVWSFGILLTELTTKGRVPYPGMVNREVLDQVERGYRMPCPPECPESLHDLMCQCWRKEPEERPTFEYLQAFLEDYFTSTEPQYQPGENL
T2 sequence (O15197 32-1021): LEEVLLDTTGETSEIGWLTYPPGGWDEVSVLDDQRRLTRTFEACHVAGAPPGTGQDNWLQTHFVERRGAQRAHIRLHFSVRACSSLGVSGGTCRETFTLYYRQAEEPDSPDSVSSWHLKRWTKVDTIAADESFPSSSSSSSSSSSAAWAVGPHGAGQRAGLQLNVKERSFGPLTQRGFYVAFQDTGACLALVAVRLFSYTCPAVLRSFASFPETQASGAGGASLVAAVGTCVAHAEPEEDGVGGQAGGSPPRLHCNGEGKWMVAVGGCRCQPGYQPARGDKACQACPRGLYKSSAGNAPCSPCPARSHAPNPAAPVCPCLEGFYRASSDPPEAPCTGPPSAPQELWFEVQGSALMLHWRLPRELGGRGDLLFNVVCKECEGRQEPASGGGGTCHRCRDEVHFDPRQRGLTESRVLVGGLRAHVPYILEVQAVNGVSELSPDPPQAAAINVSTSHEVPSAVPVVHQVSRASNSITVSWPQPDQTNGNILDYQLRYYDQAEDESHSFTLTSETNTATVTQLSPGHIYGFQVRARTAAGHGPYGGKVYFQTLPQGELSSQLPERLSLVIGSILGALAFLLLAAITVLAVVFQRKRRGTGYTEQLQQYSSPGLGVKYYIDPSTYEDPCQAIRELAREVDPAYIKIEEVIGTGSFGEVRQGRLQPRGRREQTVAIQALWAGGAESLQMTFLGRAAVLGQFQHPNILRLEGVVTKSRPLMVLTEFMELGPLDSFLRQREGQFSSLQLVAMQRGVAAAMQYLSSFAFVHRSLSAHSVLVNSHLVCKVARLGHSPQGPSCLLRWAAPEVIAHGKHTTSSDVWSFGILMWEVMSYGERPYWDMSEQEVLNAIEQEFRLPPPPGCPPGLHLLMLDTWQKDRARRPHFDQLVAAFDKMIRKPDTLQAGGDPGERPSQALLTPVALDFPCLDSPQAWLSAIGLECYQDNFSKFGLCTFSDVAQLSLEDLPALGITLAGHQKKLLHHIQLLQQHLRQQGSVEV
T1 sequence (P07333 20-972): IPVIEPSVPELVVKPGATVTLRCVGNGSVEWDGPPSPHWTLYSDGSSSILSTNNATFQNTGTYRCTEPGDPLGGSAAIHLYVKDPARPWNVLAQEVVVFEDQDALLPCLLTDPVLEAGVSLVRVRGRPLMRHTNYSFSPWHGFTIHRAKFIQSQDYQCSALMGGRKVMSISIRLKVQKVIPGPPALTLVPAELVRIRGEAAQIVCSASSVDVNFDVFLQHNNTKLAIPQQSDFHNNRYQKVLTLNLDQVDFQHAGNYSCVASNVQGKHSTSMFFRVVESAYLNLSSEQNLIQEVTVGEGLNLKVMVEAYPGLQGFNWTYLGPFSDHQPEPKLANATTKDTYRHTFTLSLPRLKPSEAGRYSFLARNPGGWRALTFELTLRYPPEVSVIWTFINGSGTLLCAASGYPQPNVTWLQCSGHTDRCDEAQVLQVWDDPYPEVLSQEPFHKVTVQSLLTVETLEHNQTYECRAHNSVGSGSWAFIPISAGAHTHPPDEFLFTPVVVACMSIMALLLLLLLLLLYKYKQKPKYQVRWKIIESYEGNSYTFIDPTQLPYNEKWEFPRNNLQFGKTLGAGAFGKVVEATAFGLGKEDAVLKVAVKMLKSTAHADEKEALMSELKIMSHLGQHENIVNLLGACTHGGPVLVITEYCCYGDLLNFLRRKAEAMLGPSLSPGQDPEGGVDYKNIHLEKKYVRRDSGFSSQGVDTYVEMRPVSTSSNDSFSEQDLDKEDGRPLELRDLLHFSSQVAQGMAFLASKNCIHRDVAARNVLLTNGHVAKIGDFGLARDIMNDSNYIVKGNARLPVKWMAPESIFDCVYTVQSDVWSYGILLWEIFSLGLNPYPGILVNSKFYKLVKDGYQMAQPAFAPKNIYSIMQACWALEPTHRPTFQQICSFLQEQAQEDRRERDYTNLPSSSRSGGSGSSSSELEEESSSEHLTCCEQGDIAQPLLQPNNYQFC

Compound: CCc1cc(O)c(F)cc1-c1cc(F)c2c(-c3nc4c([nH]3)CCN(C(=O)[C@]35C[C@H]3CCN5)C4)n[nH]c2c1 [Compound 1, (1S,5R)-2-azabicyclo[3.1.0]hexan-1-yl(2-(6-(2-ethyl-5-fluoro-4-hydroxyphenyl)-4-fluoro-1H-indazol-3-yl)-6,7-dihydro-3H-imidazo[4,5-c]pyridin-5(4H)-yl)methanone]
- inhibition at 1 µM (CSF1R): 98%
- inhibition at 1 µM (EPHB6): 85%
- lung AUC (0-6 hr) ([1]; oral aspiration of 50 μL of 0.324 mg/mL solution): 43.5 µg·h/g
- Kp ([1]; mouse, 16.2 µg/mouse, oral aspiration, lung AUC in μg hr/g to plasma AUC in μg hr/mL, read-out: lung-to-plasma AUC ratio): 59.6
- inhibition at 1 µM (KIT): 83%
- IC50 [2]: 316 nM
- inhibition at 1 µM (SRC): 65%
- inhibition at 1 µM (CDK2): 1%
